# Several values for one entry are separate records, joined by “and”; a condition that tells them apart may be missing. Equal values may be shown once.
# Test system: thromboxane A2 challenged PAH-minipig
# Experiment: Haemodynamics in the anesthetized thromboxane challenged minipig, intratracheal dry powder (PAP, BP)
# Assay type: in vivo, Göttingen Minipigs
# Details: for BP (absolute values) / PAP (absolute values): lactose vehicle first, test powder 1.5 mg/4 kg i.t. @90 min, each animal (n=3); for % changes vs. baseline on PAP: each animal
# Experimental: Healthy Göttingen Minipigs® Ellegaard (Ellegaard, Denmark) of both sexes and having a weight of 2-6 kg were used. The animals were sedated by i.m. administration of about 25 mg/kg ketamine and about 10 mg/kg azaperone. Anaesthesia was initiated by i.v. administration of about 2 mg/kg ketamine and about 0.3 mg/kg midazolam. Maintenance of anaesthesia was by i.v. administration of about 7.5-30 mg/kg/h ketamine and about 1-4 mg/kg/h midazolam (rate of infusion 1-4 ml/kg/h) and about 150 μg/kg/h pancuronium bromide (for example Pancuronium-Actavis). After intubation, the animals were ventilated by the ventilator at a constant respiratory volume (10-12 ml/kg, 35 breaths/min; Avea®, Viasys Healthcare, USA, or Engström Carestation, GE Healthcare, Freiburg, Germany) such that an end-tidal CO2 concentration of about 5% was achieved. Ventilation was performed with room air, enriched with about 40% oxygen (normoxia). For the measurement of the haemodynamic parameters such as pulmonary arterial pressure (PAP), blood pressure (BP) and heart rate (HR), catheters were inserted into the carotid artery to measure the blood pressure, and a Swan-Ganz® catheter was introduced in a flow-directed manner via the jugular vein into the pulmonary artery. The haemodynamic signals were recorded and evaluated by means of pressure transducers (Combitransducer, B. Braun, Melsungen, Germany)/amplifiers and Ponemah® as data acquisition software.
# As reference pure Lactose vehicle was applied in the beginning of each experiment.
# [1] = time 0 min, 375 μg/kg i.t., sesquihydrate
# [2] = time 10 min, 375 μg/kg i.t., sesquihydrate
# [3] = time 20 min, 375 μg/kg i.t., sesquihydrate
# [4] = time 20 min, listed as ex. 6e, sesquihydrate
# [5] = time 30 min, listed as ex. 6e, sesquihydrate
# [6] = time 40 min, listed as ex. 6e, sesquihydrate
# [7] = time 50 min, 375 μg/kg i.t., sesquihydrate
# [8] = time 50 min, listed as ex. 6e, sesquihydrate
# [9] = time 60 min, 375 μg/kg i.t., sesquihydrate
# [10] = time 60 min, listed as ex. 6e, sesquihydrate
# [11] = time 70 min, 375 μg/kg i.t., sesquihydrate
# [12] = time 70 min, listed as ex. 6e, sesquihydrate
# [13] = time 80 min, 375 μg/kg i.t., sesquihydrate
# [14] = time 80 min, listed as ex. 6e, sesquihydrate
# [15] = time 90 min, 375 μg/kg i.t., sesquihydrate
# [16] = time 90 min, listed as ex. 6e, sesquihydrate
# [17] = time 100 min, 375 μg/kg i.t., sesquihydrate
# [18] = time 100 min, listed as ex. 6e, sesquihydrate
# [19] = time 110 min, 375 μg/kg i.t., sesquihydrate
# [20] = time 110 min, listed as ex. 6e, sesquihydrate
# [21] = time 120 min, 375 μg/kg i.t., sesquihydrate
# [22] = time 120 min, listed as ex. 6e, sesquihydrate
# [23] = time 130 min, listed as ex. 6e, sesquihydrate
# [24] = time 140 min, listed as ex. 6e, sesquihydrate
smiles,measurement,setting,value
"O.O.O.O=C(O)c1ccc(CCN(CCc2ccccc2OCc2ccc(-c3ccc(C(F)(F)F)cc3)cc2Cl)[C@H]2CCCc3nc(C(=O)O)ccc32)cc1.O=C(O)c1ccc(CCN(CCc2ccccc2OCc2ccc(-c3ccc(C(F)(F)F)cc3)cc2Cl)[C@H]2CCCc3nc(C(=O)O)ccc32)cc1 [example 6e, (5S)—{[2-(4-Carboxyphenyl)ethyl][2-(2-{[3-chloro-4′-(trifluoromethyl)biphenyl-4-yl]methoxy}phenyl)-ethyl]amino}-5,6,7,8-tetrahydroquinoline-2-carboxylic acid sesquihydrate]",systemic blood pressure,"375 μg/kg i.t., within the last hour of the observation interval",slightly affected
same,maximal effect achievable in this animal model,i.t. dry powder,maximal effect
same,time to maximum effect after i.t. application,"i.t. dry powder, 1.5 mg/4 kg animal weight",approximately 80 min
same,effect on PAP and BP,"i.t. via PennCentury dry powder insufflator, 1.5 mg/4 kg animal weight",decrease of PAP without any effects on BP
same,efficacy with regard to PAP reduction as well as systemic BP reduction,"micronized hydrates, 1.5 mg/4 kg (=375 μg/kg) i.t.",comparable efficacy
same,BP (mean),[1],99 mmHg and 104 mmHg and 117 mmHg
same,PAP(mean),[1],41.9 mmHg and 37.1 mmHg and 37.5 mmHg
same,BP (mean),"time 10 min, 375 μg/kg i.t.",99 mmHg
same,BP (mean),[2],108 mmHg and 119 mmHg
same,PAP(mean),[2],42.0 mmHg and 37.3 mmHg and 38.6 mmHg
same,BP (mean),"time 20 min, 375 μg/kg i.t.",99 mmHg
same,BP (mean),[3],109 mmHg and 118 mmHg
same,PAP(mean),[3],41.4 mmHg
same,BP (absolute values),time 20 min,99 mmHg
same,BP (absolute values),[4],107 mmHg and 119 mmHg
same,PAP (absolute values),[4],42.0 mmHg and 36.4 mmHg and 37.5 mmHg
same,BP (mean),"time 30 min, 375 μg/kg i.t.",100 mmHg
same,BP (mean),"time 30 min, 375 μg/kg i.t., sesquihydrate",107 mmHg and 118 mmHg
same,BP (absolute values),[5],99 mmHg and 104 mmHg and 117 mmHg
same,PAP (absolute values),[5],41.9 mmHg and 37.1 mmHg and 37.5 mmHg
same,BP (mean),"time 40 min, 375 μg/kg i.t.",100 mmHg
same,BP (absolute values),time 40 min,99 mmHg
same,BP (absolute values),[6],108 mmHg and 119 mmHg
same,PAP (absolute values),[6],42.0 mmHg and 37.3 mmHg and 38.6 mmHg
same,"BP, % changes vs. prevalues",[7],101.4% and 98.5% and 100.3%
same,"PAP, % changes vs. prevalues",[7],98.3% and 96.2% and 101.2%
same,BP (absolute values),time 50 min,99 mmHg
same,BP (absolute values),[8],109 mmHg and 118 mmHg
same,PAP (absolute values),[8],41.4 mmHg and 37.4 mmHg and 39.8 mmHg
same,"BP, % changes vs. prevalues",[9],102.5% and 100.3% and 99.4%
same,"PAP, % changes vs. prevalues",[9],97.2% and 99.6% and 101.1%
same,BP (absolute values),time 60 min,100 mmHg
same,BP (absolute values),[10],107 mmHg and 118 mmHg
same,PAP (absolute values),[10],41.4 mmHg and 36.8 mmHg and 41.2 mmHg
same,"BP, % changes vs. prevalues",[11],99.4% and 96.0% and 98.6%
same,"PAP, % changes vs. prevalues",[11],97.8% and 97.5% and 98.5%
same,BP (absolute values),time 70 min,100 mmHg
same,BP (absolute values),[12],109 mmHg and 118 mmHg
same,PAP (absolute values),[12],41.0 mmHg and 37.4 mmHg and 41.3 mmHg
same,% changes vs. baseline on PAP,"time 80 min (baseline = 100.0), i.t. dry powder",100.0%
same,"BP, % changes vs. prevalues",[13],101.4% and 96.8% and 97.7%
same,"PAP, % changes vs. prevalues",[13],87.8% and 94.9% and 87.9%
same,BP (absolute values),[14],101 mmHg and 114 mmHg and 119 mmHg
same,PAP (absolute values),[14],40.9 mmHg and 38.1 mmHg and 40.8 mmHg
same,"BP, % changes vs. prevalues",[15],101.4% and 98.5% and 96.9%
same,"PAP, % changes vs. prevalues",[15],82.5% and 92.0% and 76.6%
same,% changes vs. baseline on PAP,"time 90 min, baseline 100.0 at 80 min, i.t. dry powder, sesquihydrate",98.9% and 103.6% and 99.8%
same,BP (absolute values),time 90 min,102 mmHg
same,BP (absolute values),[16],116 mmHg and 118 mmHg
same,PAP (absolute values),[16],40.4 mmHg and 39.5 mmHg and 40.7 mmHg
same,"BP, % changes vs. prevalues",[17],101.4% and 98.5% and 96.9%
same,"PAP, % changes vs. prevalues",[17],77.6% and 90.1% and 71.1%
same,% changes vs. baseline on PAP,"time 100 min, baseline 100.0 at 80 min, i.t. dry powder, sesquihydrate",99.5% and 101.4% and 97.3%
same,BP (absolute values),time 100 min,99 mmHg
same,BP (absolute values),[18],111 mmHg and 117 mmHg
same,PAP (absolute values),[18],40.7 mmHg and 38.7 mmHg and 39.6 mmHg
same,"BP, % changes vs. prevalues",[19],99.4% and 103.7% and 96.1%
same,"PAP, % changes vs. prevalues",[19],74.0% and 88.3% and 68.4%
same,% changes vs. baseline on PAP,"time 110 min, baseline 100.0 at 80 min, i.t. dry powder, sesquihydrate",89.3% and 98.7% and 86.8%
same,BP (absolute values),[20],101 mmHg and 112 mmHg and 116 mmHg
same,PAP (absolute values),[20],36.5 mmHg and 37.6 mmHg and 35.4 mmHg
same,"BP, % changes vs. prevalues",[21],99.4%
same,"PAP, % changes vs. prevalues",[21],72.8% and 73.1% and 66.2%
same,% changes vs. baseline on PAP,"time 120 min, baseline 100.0 at 80 min, i.t. dry powder, sesquihydrate",84.0% and 95.6% and 75.7%
same,BP (absolute values),[22],101 mmHg and 114 mmHg and 115 mmHg
same,PAP (absolute values),[22],34.3 mmHg and 36.4 mmHg and 30.8 mmHg
same,"PAP, % changes vs. prevalues","time 130 min, 375 μg/kg i.t., sesquihydrate",69.8%
same,% changes vs. baseline on PAP,"time 130 min, baseline 100.0 at 80 min, i.t. dry powder, sesquihydrate",78.9% and 93.7% and 70.2%
same,BP (absolute values),[23],101 mmHg and 114 mmHg and 115 mmHg
same,PAP (absolute values),[23],32.3 mmHg and 35.7 mmHg and 28.6 mmHg
same,% changes vs. baseline on PAP,"time 140 min, baseline 100.0 at 80 min, i.t. dry powder, sesquihydrate",75.2% and 91.8% and 67.5%
same,BP (absolute values),[24],99 mmHg and 120 mmHg and 114 mmHg
same,PAP (absolute values),[24],30.8 mmHg and 35.0 mmHg and 27.5 mmHg
same,% changes vs. baseline on PAP,"time 150 min, baseline 100.0 at 80 min, i.t. dry powder, sesquihydrate",74.0% and 76.0% and 65.4%
